These results are taken from ChEMBL document CHEMBL1123432, “Methotrexate analogues. 28. Synthesis and biological evaluation of new gamma-monoamides of aminopterin and methotrexate” (J Med Chem, 1986).

The species entered for experiment [1] is Mus musculus. Description: Compound was tested against weight change in mice with L1210 leukemia cells on 10 th Day at Dose 80 mg / kg. As to conditions: at 80 mg/kg.
The target of experiment [2] is T1, Dihydrofolate reductase (Mus musculus, UniProt P00375).
T1 sequence (P00375 whole entry): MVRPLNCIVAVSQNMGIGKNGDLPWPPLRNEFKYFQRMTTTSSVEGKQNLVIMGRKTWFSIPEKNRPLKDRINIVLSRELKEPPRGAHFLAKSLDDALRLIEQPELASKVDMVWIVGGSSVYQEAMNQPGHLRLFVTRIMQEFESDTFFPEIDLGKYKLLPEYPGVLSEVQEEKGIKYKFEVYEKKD
Description: biochemical.
Description: Compound was tested for its inhibitory concentration to inhibit the enzyme Dihydro Folate Reductase (DHFR) from murine L1210 leukemia cells.

The subject of experiment [3] is Mus musculus. Kind of experiment: Median Survival days of mice infected with L1210 leukemia cells at dose 40 mg/kg relative to that of 9 days for control in expt 1. Type of experiment: functional.
Experiment [4] relates to Mus musculus. Description: Median Survival days of mice infected with L1210 leukemia cells at dose 100 mg/kg relative to that of 9 days for control in expt 2. The format is functional.
For experiment [5], the species on record is Mus musculus. Kind of experiment: Compound was tested against weight change in mice with L1210 leukemia cells on 10 th Day at Dose 60 mg / kg. Conditions: at 60 mg/kg.
Experiment [6] concerns Mus musculus. Description: Increase in life span of mice with L1210 leukemia cells at a dose of 80 mg/kg in expt 1. Type of experiment: functional.
Experiment [7] has as its target T2, Dihydrofolate reductase (Mus musculus) (UniProt P00375).
T2 sequence (whole entry): T1 sequence (P00375 whole entry)
Conditions: L1210.
Description: Compound was tested for inhibition of the enzyme DiHydroFolate Reductase (DHFR) from murine L1210 leukemia cells

The subject of experiment [8] is Mus musculus. Kind of experiment: Median Survival days of mice infected with L1210 leukemia cells at dose 80 mg/kg relative to that of 9 days for control in expt 2. Type of experiment: functional.
Experiment [9] relates to L1210. Description: Compound was tested for its inhibitory concentration to inhibit the growth of wild type L1210 cells and a subline (L1210 / R81). Type of experiment: functional, cell-based. Conditions: Mus musculus.
Experiment [10] is filed under the species Mus musculus. Kind of experiment: Compound was tested against weight change in mice with L1210 leukemia cells on 10 th Day at Dose 20 mg / kg. Conditions: at 20 mg/kg.
For experiment [11], the system named is L1210. Description: Compound was tested for its inhibitory concentration to inhibit the growth of wild type L1210 cells. The format is functional, cell-based, Mus musculus.
Experiment [12] concerns Mus musculus. Kind of experiment: Increase in life span of mice with L1210 leukemia cells at a dose of 40 mg/kg in expt 1. The format is functional.
For experiment [13], the species on record is Mus musculus. Kind of experiment: Compound was tested against weight change in mice with L1210 leukemia cells on 10 th Day at Dose 40 mg / kg. Conditions: at 40 mg/kg.
For experiment [14], the species on record is Mus musculus. Description: Compound was tested against weight change in mice with L1210 leukemia cells on 7 th Day at Dose 100 mg / kg. Type of experiment: functional. As to conditions: at 100 mg/kg.
Experiment [15] deals with Mus musculus. Kind of experiment: Median Survival days of mice infected with L1210 leukemia cells at dose 20 mg/kg relative to that of 9 days for control in expt 1. Type of experiment: functional.
The subject of experiment [16] is Mus musculus. Kind of experiment: Increase in life span of mice with L1210 leukemia cells at a dose of 60 mg/kg in expt 1. Type of experiment: functional.
Experiment [17] deals with Mus musculus. Description: Median Survival days of mice infected with L1210 leukemia cells at dose 80 mg/kg relative to that of 9 days for control in expt 1. The format is functional.
The subject of experiment [18] is Mus musculus. Kind of experiment: Median Survival days of mice infected with L1210 leukemia cells at dose 60 mg/kg relative to that of 9 days for control in expt 2. The format is functional.
In experiment [19] the test system is Mus musculus. Kind of experiment: Increase in life span of mice with L1210 leukemia cells at a dose of 100 mg/kg in expt 1. The format is functional.
In experiment [20] the test system is Mus musculus. Description: Increase in life span of mice with L1210 leukemia cells at a dose of 80 mg/kg. The format is functional.
Experiment [21] concerns Mus musculus. Kind of experiment: Increase in life span of mice with L1210 leukemia cells at a dose of 80 mg/kg; Toxic. The format is functional, organism-based. Also on record: dose 80 mg/kg.
The test system of experiment [22] is Mus musculus. Kind of experiment: Median Survival days of mice infected with L1210 leukemia cells at dose 70 mg/kg relative to that of 10 days for control. Type of experiment: functional.
For experiment [23], the species on record is Mus musculus. Description: Compound was tested against weight change in mice with L1210 leukemia cells on 10 th Day at Dose 50 mg / kg. Conditions: at 50 mg/kg.
For experiment [24], the system named is Mus musculus. Kind of experiment: Median Survival days of mice infected with L1210 leukemia cells at dose 70 mg/kg relative to that of 10 days for control; Toxic. The format is functional, organism-based. Also on record: dose 70 mg/kg.
Experiment [25] has as its system Mus musculus. Kind of experiment: Increase in life span of mice with L1210 leukemia cells at a dose of 50 mg/kg. Type of experiment: functional.
The species named for experiment [26] is Mus musculus. Description: Compound was tested against weight change in mice with L1210 leukemia cells on 10 th Day at Dose 70 mg / kg. Conditions: at 70 mg/kg.
Experiment [27] concerns Mus musculus. Description: Median Survival days of mice infected with L1210 leukemia cells at dose 50 mg/kg relative to that of 10 days for control. Type of experiment: functional.
The test system of experiment [28] is Mus musculus. Kind of experiment: Median Survival days of mice infected with L1210 leukemia cells at dose 60 mg/kg relative to that of 10 days for control. The format is functional.
The species entered for experiment [29] is Homo sapiens. Kind of experiment: Compound was tested for its inhibitory concentration against human leukemic lymphoblasts (CEM Cells). The format is functional. As to conditions: CCRF-CEM.
Experiment [30] concerns Mus musculus. Kind of experiment: Median Survival days of mice infected with L1210 leukemia cells at dose 40 mg/kg relative to that of 9 days for control. The format is functional.
The species named for experiment [31] is Homo sapiens. Kind of experiment: Compound was tested for its inhibitory concentration against human leukemic lymphoblasts (CEM Cells) and a resistant subline (CEM / MTX). Type of experiment: functional. Conditions: CCRF-CEM.
Experiment [32] deals with Mus musculus. Kind of experiment: Increase in life span of mice with L1210 leukemia cells at a dose of 20 mg/kg. The format is functional.
Experiment [33] deals with Mus musculus. Description: Median Survival days of mice infected with L1210 leukemia cells at dose 80 mg/kg relative to that of 9 days for control. The format is functional.
Experiment [34] deals with Mus musculus. Description: Median Survival days of mice infected with L1210 leukemia cells at dose 20 mg/kg relative to that of 9 days for control. The format is functional.
Experiment [35] deals with Mus musculus. Kind of experiment: Increase in life span of mice with L1210 leukemia cells at a dose of 40 mg/kg. Type of experiment: functional.
Experiment [36] has as its system L1210. Description: Compound was tested for its inhibitory concentration to inhibit the growth of wild type L1210 cells and a subline ( L1210 / R81 ). Type of experiment: functional, cell-based. As to conditions: Mus musculus.
The target of experiment [37] is T1, Dihydrofolate reductase. Description: Compound was tested for its inhibitory concentration to inhibit the enzyme Dihydro Folate Reductase ( DHFR ) from murine L1210 leukemia cells. The format is cell-based.

Several values for one entry are separate records, joined by “and”; a condition that tells them apart may be missing. Identical values can stand only once.

For the molecule `CN(Cc1cnc2nc(N)nc(N)c2n1)c1ccc(C(=O)NC(CCC(=O)Nc2ccc3c(c2)OCO3)C(=O)O)cc1` (stereo not given), the Weight change in the experiment listed under Mus musculus [1] was 6% and -5%; in the experiment listed under Mus musculus [5] it was 3%; in the experiment filed under Mus musculus [10], 11%; in the experiment listed under Mus musculus [13], 10%; in the experiment listed under Mus musculus [14], 1%. Also, the IC50 is 0.042 µM against Dihydrofolate reductase [2]; 25 µM in the experiment on L1210 [9]; 0.0029 µM with L1210 [11] (Mus musculus, L1210). Besides, the Survival in the experiment on Mus musculus [3] stood at 13 days; in the experiment with Mus musculus [4] it was 16 days; in the experiment on Mus musculus [8], 16 days; in the experiment on Mus musculus [15], 11 days; in the experiment on Mus musculus [17], 15 days; in the experiment with Mus musculus [18], 14 days. Besides, the ILS at 80 mg/kg with Mus musculus [6] was determined as 67%. In addition, the IC50/[E] in experiment [7] worked out at 1.1. Besides, the ILS at 40 mg/kg with Mus musculus [12] was determined as 78%. The ILS at 60 mg/kg in the experiment on Mus musculus [16] turned out to be 56%. Also, in the experiment with Mus musculus [19], the ILS at 100 mg/kg came out at 78%.

For `Nc1nc(N)c2nc(CNc3ccc(C(=O)NC(CCC(=O)NCc4ccc(Cl)c(Cl)c4)C(=O)O)cc3)cnc2n1` (stereo not given), the ILS at 80 mg/kg with Mus musculus [20] turned out to be 50%. Besides, the Weight change is given as -16% in the experiment listed under Mus musculus [1], 0% in the experiment listed under Mus musculus [5], 2% in the experiment listed under Mus musculus [23] and -3% in the experiment listed under Mus musculus [26]. In addition, the IC50 at Dihydrofolate reductase [2] worked out at 0.13 µM; in the experiment on L1210 [9], 32 µM; in the experiment on L1210 [11] (Mus musculus, L1210) it was 0.046 µM; in the experiment with L1210 [11] (l1210) it was 0.034 µM. Moreover, in the experiment on Mus musculus [21], the ILS entry is “Toxic”. Moreover, the Survival was 21 days in the experiment on Mus musculus [22], “Toxic” in the experiment on Mus musculus [24], 15 days in the experiment on Mus musculus [27] and 17 days in the experiment with Mus musculus [28]. In experiment [7], the IC50/[E] amounted to 3.3. In addition, the ILS at 50 mg/kg in the experiment with Mus musculus [25] came out at 70%.

As to `Nc1nc(N)c2nc(CNc3ccc(C(=O)NC(CCC(=O)N[C@]45C[C@H]6C[C@H](C[C@H](C6)C4)C5)C(=O)O)cc3)cnc2n1` (stereo not given in full), the IC50 in the experiment filed under Homo sapiens [29] was found to be 4.5 µM; on Dihydrofolate reductase [2] it was 0.1 µM; in the experiment filed under Homo sapiens [31], 16 µM; in the experiment with L1210 [9], 25 µM; in the experiment with L1210 [11] (Mus musculus, L1210) it was 0.68 µM; with L1210 [11] (l1210), 0.51 µM. Moreover, the ILS at 80 mg/kg in the experiment on Mus musculus [20] is 22%. Also, the Weight change in the experiment listed under Mus musculus [1] worked out at 17%. Besides, the Survival with Mus musculus [30] worked out at 9 days; with Mus musculus [33], 10 days; in the experiment on Mus musculus [34] it was 8 days. In addition, in experiment [7], the IC50/[E] came out at 2.5. In addition, in the experiment with Mus musculus [32], the ILS at 20 mg/kg is -11%. In the experiment with Mus musculus [35], the ILS at 40 mg/kg came to 0%.

With `CN(Cc1cnc2nc(N)nc(N)c2n1)c1ccc(C(=O)NC(CCC(=O)Nc2ccc(O)c(O)c2)C(=O)O)cc1` (stereo not given), the IC50 is 0.03 µM and 0.0084 µM in the experiment with L1210 [11] (l1210); 38 µM with L1210 [36]; 0.031 µM against Dihydrofolate reductase [37].

`Nc1nc(N)c2nc(CNc3ccc(C(=O)NC(CCC(=O)Nc4ccc(O)c(O)c4)C(=O)O)cc3)cnc2n1` (stereo not given): the IC50 was 0.037 µM and 0.006 µM with L1210 [11] (l1210); 23 µM in the experiment on L1210 [36]; 0.057 µM on Dihydrofolate reductase [37].
